Consider five molecules from patent publication US20160199407A1, “HALIDES IN THE TREATMENT OF PATHOGENIC INFECTION” (THE UNIVERSITY OF IOWA RESEARCH FOUNDATION, priority 2008, published 2016).

Each structure is given as a SMILES string. Entries after “also recorded” stand apart in the source; their conditions may differ. Where two headings read alike, the source gives them in different places.

For series [1], the system named is influenza A (H1N1, A/PR/8/34). Type of series: cell-based. Conditions: pH 6.5.
Series [2] relates to eukaryotic cells. The conditions noted are these: HOI: at bactericidal concentrations; cited from earlier work.
Series [3] deals with adenovirus (serotype 5). The experiment in a line: In vitro (cell free) inactivation of adenovirus expressing eGFP. Conditions: 5 min exposure, readout 24 hr later.
For series [4], the system named is SARS-CoV (Urbani strain). Type of series: cell-based. The conditions noted are these: human airway epithelia, 5 MOI, ATP (100 μM), 6.5 mg/mL LPO, NaI, pH 6.5, 24 hr.
In series [5] the test system is A2 strain of RSV. The experiment in a line: Cell free exposure of RSV to Duox/LPO system components, then titering. Conditions: 5 min.
Series [6] deals with adenovirus expressing eGFP. In words: In situ inactivation of adenovirus on AEC. The conditions noted are these: porcine airway epithelia, 50 MOI, ATP (100 μM), 6.5 mg/mL LPO, NaI, PBS pH 6.5.
In series [7] the test system is H. influenzae. In words: H. influenzae (NTHi) killing on airway epithelial cell cultures with LPO and I^− or SCN^−. The series is classed as cell-based.
Series [8] deals with S. aureus. The experiment in a line: S. aureus killing on airway epithelial cell cultures with LPO and I^− or SCN^−. Type of series: cell-based.
For series [9], the system named is M. haemolytica. The experiment in a line: M. haemolytica killing by AEC cultures. Type of series: cell-based.
Series [10] has as its system primary airway epithelia. The conditions noted are these: cited from earlier work.
Series [11] can be described thus: I^− accumulation in airway surface fluid after oral KI intake.
Series [12] deals with human AEC. The experiment in a line: HOI generation by AEC, fluorescein absorbance at 508 nm. The series is classed as cell-based. Conditions: apical ATP (100 μM), I^− (400 μM), LPO (9 μg/ml), fluorescein (16 μM), 3 hours.

With `OI` [HOI], the “Influenza viral antigen (NS1)” value in series [1] is on record as “dose dependent decrease”. For the same molecule, in series [2], the “Toxicity to eukaryotic cells” value was “not toxic”. Also, the “Adenovirus inactivation (eGFP expression in transduced A549 cells)” value in series [3] is recorded as “inactivated; also recorded: dose-dependent decrease”. The “SARS-CoV inactivation (N gene product immunoreactivity)” value in series [4] was “sufficient H2O2 to support; also recorded: marked reduction”. Also, in series [5], the “Solution pH at which antiviral effect against RSV was most marked” value was at most 6.5. For the same molecule, the “Drop in RSV titer” value in series [5] (PBS) is recorded as 5 log. In addition, the “Adenovirus inactivation on airway epithelia (GFP expression)” value in [6] is reported as “sufficient H2O2 to support; also recorded: dose dependent decrease”. The “Bactericidal activity against H. influenzae” value in series [7] (airway epithelia, LPO) is on record as “strong bactericidal activity”. Further, in [8] (airway epithelia, LPO), the “Efficiency of HOI producing system against S. aureus versus OSCN^− producing mechanism” value is reported as “more efficient”.

Turning to `N#CS` [SCN^−, thiocyanate, reference compound], the “Susceptibility of M. haemolytica to supported antibacterial activity” value in series [9] is recorded as “susceptible”. Besides, the “Killing of M. haemolytica” value in series [9] (250 μM SCN^−, 3 hours) is “supported killing”. Further, in series [10] (Moskwa, 2007), the “Rate of apical-to-basolateral leakage” value is on record as under 10 %/hour. In addition, in series [10] (published data), the “Basolateral concentration above which primary airway epithelia secrete the anion” value was over 5 µM. The “SCN− in place of I^− in the oxidative mechanism eliminating H. influenzae” value in series [7] (LPO, epithelial cells, 3 hrs, 500 μM SCN^− controls) was “cannot replace I^−”. Further, in series [8] (AEC cultures, data not shown), the “SCN^− concentration necessary for killing of S. aureus” value was over 120 µM.

On to `[I-].[K+]` [KI, potassium iodide], for which the “Airway surface fluid I^− concentration relative to serum I^− level” value in [11] (8 hours after oral 130 mg KI) is listed as “more than 50 fold”. In addition, in series [11] (oral 130 mg KI), the “Sufficiency to achieve the airway surface fluid I^− level (10-50 μM) necessary for HOI-mediated elimination of bacteria and viruses” value is on record as “more than sufficient”; the “Time the high airway surface fluid I^− concentration was maintained” value is “several hours”. In addition, in series [11] (two hours after oral KI tablet (130 mg), human subject), the “I^− concentration in airway surface fluid” value is about 200 µM.

In the case of `I` [I^−, iodide], in series [9], the “Elimination of M. haemolytica in the presence of I^− as compared to SCN^−” value is recorded as “more effective” and the “Susceptibility of M. haemolytica to supported antibacterial activity” value is “susceptible”. In series [9] (LPO and 250 μM I^−, 3 hours), the “Bacterial survival (M. haemolytica)” value was “No surviving bacteria”. Besides, the “Basolateral concentration above which primary airway epithelia secrete the anion” value in series [10] is “higher than 1 μM”. Further, in series [7] (200 and 500 μM I−, LPO (7 μg/ml), epithelial cells, 1000 CFU, 3 hrs), the “Bacterial survival (H. influenzae)” value is listed as “No surviving bacteria”. In addition, the “I^− concentration sufficient to support strong NTHi-killing activity of AEC” value in [7] (LPO present, catalase absent, data not shown) was at most 50 µM. Moreover, in [7] (LPO, airway epithelia, 3 hr), the “I^− concentration at which numbers of surviving H. influenzae were lower” value was at least 10 µM and the “I^− concentration giving complete eradication of bacteria (H. influenzae)” value was in the range of 50 to 200 µM. For the same molecule, in series [8] (50 and 200 μM I^−, LPO (7 μg/ml), epithelial cells, 1000 CFU, 3 hrs), the “Bacterial survival (S. aureus)” value is listed as “No surviving bacteria”. Further, the “I^− concentration supporting complete elimination of S. aureus” value in [8] (AEC cultures, data not shown) is 50 µM. In addition, in [8] (LPO, airway epithelia, 3 hr), the “I^− concentration at which numbers of surviving S. aureus were lower” value was at least 10 µM and the “I^− concentration giving complete eradication of bacteria (S. aureus)” value was in the range of 50 to 200 µM. Moreover, the “HOI production by AEC” value in [12] is on record as “can support HOI production”.

`N#CSO` [OSCN^−, hypothiocyanite, reference compound]: the “Influenza viral antigen (NS1)” value in [1] is “dose dependent decrease”. Moreover, the “Toxicity to eukaryotic cells” value in series [2] is on record as “not toxic”. The “Virucidal effects on RSV” value in series [5] (PBS) is given as “minimal virucidal effects”. Besides, in [7] (AEC cultures, data not shown), the “Susceptibility of NTHi” value is recorded as “resistant”. Further, the “Bactericidal activity against H. influenzae” value in series [7] (airway epithelia, LPO) was “ineffective”.
